Measured values reported in patent US11573234B2, “Predicting responders to cyclophosphamide therapy” (Royal Melbourne Institute of Technology, priority 2017, dated 2023).
Read-outs that look alike come from different tables or passages of the source.

Experiments:
[1] = tested on: recurrent uterine and ovarian cancers; settings: cited from earlier work; for response rates: second line, recurrent disease, cisplatin uterine, carboplatin ovarian cancers
[2] = tested on: CCR4 expression on T cells
Description: (§1) Ten (10) human patients with gynaecological cancers with ages ranging from 62-82 years were recruited in a bicentric phase II trial. […] Disease progression was determined using RECIST and GCIG CA125 criteria (Rustin G J et al., (2011) Official journal of the International Gynaecological Cancer Society February; 21(2):419-23). From the time of recruitment, written consent was obtained from patients and pre-treatment blood samples were collected. Patients received oral doses of 50 mg cyclophosphamide twice daily (morning and evening), for 3 consecutive days and blood was collected 2 weeks later in EDTA coated tubes for whole blood and serum separation tubes for sera (BD Vacutainer, BD, USA). The treatment cycle and blood sampling were repeated at fortnightly intervals for up to 8 cycles. For healthy samples, buffy coats were obtained from routine blood donations, acquired at the Australian Red Cross Blood Service.
Peripheral blood mononuclear cells (PBMCs) were isolated within 24 hours of blood collection via Ficoll (Amersham Pharmacia Biotech, Sweden) density gradient centrifugation. Cells were then washed in Dulbecco's Phosphate Buffered Saline (dPBS, Sigma-Aldrich, USA). The isolated PBMCs were frozen down in a freeze medium containing 10% DMSO (Sigma-Aldrich, USA) and 90% heat-inactivated fetal calf serum (GIBCO, Life Technologies, USA) or 90% human AB serum (Sera Laboratories International, UK) at a speed of 1° C./min at −80° C. and subsequently stored in liquid nitrogen. Upon thawing, each vial of frozen PBMCs was quickly defrosted in a 37° C. water-bath and re-suspended in AIM-V media (Life Technologies, USA) with 5% normal human serum (HS, Sigma-Aldrich, USA) (complete AIM-V media).
Cells were then washed twice with stain buffer. […] Data were analysed using Flowjo software (TreeStar, USA).
To investigate the effect of cyclophosphamide on CCR4 expression within T cells, the frequency of CCR4^+ cells pre-treatment (n=mean of 7-8 time points) was compared to the frequencies following each cycle of treatment (n=mean of 3-6 time points) for each individual patient.

[3] = tested on: advanced treatment-refractory gynaecological tumours
Description: as §1

[4] = tested on: ID8 tumour bearing animals; settings: mouse, in vivo
Description: To address the effects of LDCy on immunity in tumour bearing animals, ID8 implanted animals (n=5/group) were treated at post challenge (at the onset of detectable tumour growth in vivo) with one cycle of LDCy and assessed changes in T cell subsets ex-vivo at days 1, 7 and 14 post in vivo treatment by flow cytometry.

[5] = tested on: CD107a on CD4+ and CD8+ T cells; settings: 3 increased % CCR4 patients; PMA and ionomycin 6 hours
Description: The cytotoxic capacity of T cells was determined by culturing PBMCs with complete AIM-V media at 10^6 cells/500 μl/well in a 48 well plate. […] Brefeldin A (eBioscience, USA) was added at 3 μg/ml for the last 4 hours of incubation. After incubation, cells were washed and labelled for surface markers as described above. Cells were analysed using flow cytometry, unstimulated cells, fluorescence minus one (FMO) and isotype matched antibodies were also used as controls. Data were collected and analysed as above.
The frequencies of CD107a+ cells within CD4+ and CD8+ T cells were determined using samples from 3 of the 4 increased % CCR4 patients at one of the time points when CCR4+ T cell frequencies was increased.

[6] = tested on: CCR4 expression on T cells in PBMCs; test: In vitro drug experiment: CCR4 expression on T cells in PBMCs; settings: 30 ng/ml, 72 hours
[7] = tested on: acetylation of H3K9, H3K14 and H3K18; test: Histone 3 acetylation detection by flow cytometry; assay type: cell-based, human; settings: 72 hours
Description: The acetylation of histone 3 at lysine (H3K)9, H3K14 and H3K18 was assessed using flow cytometry. […] In the last 4 hours of culture, 50 nM panobinostat (LBH589, a pan histone deacetylase (HDAC) inhibitor) was added to the IL-2 cultures. Cells were harvested and prepared for flow cytometry analysis as described above. Following surface labelling, fixation and permeabilisation, cells were labelled with unconjugated anti-H3K9, anti-H3K14 and anti-H3K18 (Cell Signalling Technology, USA). Secondary labelling was performed using an Alexa Fluor 488 conjugated donkey anti-rabbit Ig antibody (Biolegend, USA). Data were collected and analysed as above.

[8] = increased % CCR4 patients at time points of CCR4 increase, p<0.05

## N.N.O=C([O-])C1(C(=O)[O-])CCC1.[Pt+2] [carboplatin]
[1]
  response rates: around 20%

## N.N.[Cl][Pt][Cl] [cisplatin]
[1]
  response rates: around 20%

## O=P1(N(CCCl)CCCl)NCCCO1 (centres unmarked) [cyclophosphamide]
[2]; first 3 cycles of treatment, p<0.01
  mean ratio of CCR4+ Tconvs to CCR4+ Tregs, increased % CCR4 vs constant % CCR4 patients: over 2 fold
[2]; first 3 cycles of treatment, p<0.05
  mean ratio of CCR4+ CD8+ T cells to CCR4+ Tregs, increased % CCR4 vs constant % CCR4 patients: over 3 fold
[2]; increased % CCR4 patients at time points of CCR4 increase
  frequency of CCR4+ cells within Tregs compared to pre-treatment: not significantly increased
[2]; [8]
  fold increase in the frequency of CCR4+ cells within CD8+ T cells compared to pre-treatment: 5 fold
  fold increase in the frequency of CCR4+ cells within Tconvs compared to pre-treatment: 5 fold
[2]; increased % CCR4 patients, all 3 populations
  CCR4 mean fluorescence intensity (MFI) within Tregs, Tconvs and CD8+ T cells relative to pre-treatment: remained unchanged
[2]; of the 10 patients, following at least one cycle, within the first 3 cycles
  patients with significant increases in the frequency of CCR4+ cells within CD3+ T cells: 4
[3]; CCR4 spike patients (n=4)
  mean overall survival: 476 ± 80 days
[3]; CCR4 steady patients (n=6)
  mean overall survival: 163 ± 37 days
[3]; of the 4 CCR4 spike patients
  patients who achieved stable disease: 3
[3]; of the 6 CCR4 steady patients
  patients who achieved stable disease: None
[3]; patients with CCR4 up-regulation in vivo and in the in vitro CUP pre-test
  increase in survival: > 300 days
[3]; spike vs steady patients
  survival of CCR4 spike patients relative to CCR4 steady patients: approximately 3 times
[4]
  CCR4+ CD4 T cell effectors in peripheral blood: a trend towards CCR4^+ CD4 T cell effector increases
  CCR4+ Treg in peripheral blood: no increases
  CCR4+CD8+ T cells in peripheral blood: clear increases
  CD69+ CD4 T cell effectors in TILS: a trend towards CD69^+ CD4 T cell effector increases
  CD69+ Treg in TILS: no CD69^+Treg increases
  CD69+CD8+ T cells in tumour infiltrating lymphocytes (TILS): clearly increased
[5]
  mean frequency of CD107a+ cells in CD4+ and CD8+ populations vs pre-treatment: increased compared to pre-treatment samples, however neither increase was significant
[1]; low dose, women with recurrent ovarian cancer
  clinical benefit (share of patients): 25-44%

## CC(=O)O[C@H]1C(=O)[C@@]2(C)[C@H]([C@H](OC(=O)c3ccccc3)[C@]3(O)C[C@H](OC(=O)[C@H](O)[C@@H](NC(=O)c4ccccc4)c4ccccc4)C(C)=C1C3(C)C)[C@]1(OC(C)=O)CO[C@@H]1C[C@@H]2O [paclitaxel]
[6]
  frequency of CCR4+ T cells in healthy PBMCs: does not Significantly Increase

B1: IL-4: IL-4 (R&D systems, USA), cytokine used at 10 ng/ml (protein, UniProt P05112 25-153, looked up)
Interleukin-4: HKCDITLQEIIKTLNSLTEQKTLCTELTVTDIFAASKNTTEKETFCRAATVLRQFYSHHEKDTRCLGATAQQFHRHKQLIRFLKRLDRNLWGLAGLNSCPVKEANQSTLENFLERLKTIMREKYSKCSS
[7]; IL-4 10 ng/ml, p<0.05
  acetylation of H3K9 in CD8+ T cells: slight but significant decrease
[7]; mafosfamide […] or IL-4 10 ng/ml
  acetylation of H3K14: Neither mafosfamide nor IL-4 treatment resulted in a change
